Assay results from patent publication US8076073B2, “Cholesterol and hedgehog signaling” (The Johns Hopkins University School of Medicine, priority 1998, dated 2011).
“Also recorded” adds a separate entry of the source.

How the values were obtained:
[1] = system: 7-dehydrocholesterol reductase; conditions: cited from earlier work
[2] = system: enzymes of cholesterol biosynthesis; conditions: cited from earlier work
[3] = system: pregnant rats; conditions: treatment of pregnant rats; cited from earlier work
[4] = system: mice; conditions: mice with hypomorphic apoB mutation (truncated apoB, reduced cholesterol levels); cited from earlier work
[5] = target: T1, Hh protein (Drosophila melanogaster, UniProt Q02936); conditions: relatively low concentrations; nucleophile in the second step; cited from earlier work
T1 construct: made in house
T1 sequence (Q02936 1-471): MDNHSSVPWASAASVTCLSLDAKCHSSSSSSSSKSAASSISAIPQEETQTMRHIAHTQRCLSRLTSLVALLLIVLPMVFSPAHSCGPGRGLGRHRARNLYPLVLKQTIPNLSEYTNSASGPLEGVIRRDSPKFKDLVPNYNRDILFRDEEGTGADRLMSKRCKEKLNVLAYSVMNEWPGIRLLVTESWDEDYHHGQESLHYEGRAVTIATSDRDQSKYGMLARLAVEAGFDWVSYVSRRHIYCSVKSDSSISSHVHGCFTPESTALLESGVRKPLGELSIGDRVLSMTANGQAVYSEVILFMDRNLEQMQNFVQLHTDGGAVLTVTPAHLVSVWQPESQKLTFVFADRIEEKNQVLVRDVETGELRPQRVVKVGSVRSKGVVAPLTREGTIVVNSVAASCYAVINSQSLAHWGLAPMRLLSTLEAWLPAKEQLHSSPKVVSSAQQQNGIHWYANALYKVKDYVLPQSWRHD

[6] = system: pregnant ewes / newborn lambs; conditions: grazing by pregnant ewes; cited from earlier work
[7] = system: COS7 cells; assay: Jervine inhibition of cholesterol biosynthesis, [3H]-mevalonic acid labelling and HPLC sterol analysis; format: cell-based; design: radiolabelled cholesterol levels / another radiolabelled sterol, tentatively identified as zymosterol: dose or concentration left out as unconfirmed
Text: Given the structural similarities of these compounds to cholesterol and the similar teratogenic effects of cholesterol synthesis inhibitors upon the offspring of pregnant rats, a reasonable mechanism to consider for the effects of these plant sterol derivatives was the inhibition of cholesterol biosynthesis. Accordingly, we tested COS7 cultured cells treated with jervine for defects in cholesterol biosynthesis by labelling with [3H]-mevalonic acid and then extracting and analyzing radiolabelled, non-saponifiable lipids. […] Given the similarities in their teratogenic effects, this inhibition seems likely to underlie the teratogenic effects of both the synthetic and natural compounds.
Given the structural similarities of these compounds to cholesterol and the similar teratogenic effects of cholesterol synthesis inhibitors upon the offspring of pregnant rats, a reasonable mechanism to consider for the effects of these plant sterol derivatives was the inhibition of cholesterol biosynthesis. Accordingly, COS7 cultured cells treated with jervine were tested for defects in cholesterol biosynthesis by labelling with [3H]-mevalonic acid and then extracting and analyzing radiolabelled, non-saponifiable lipids. Metabolic labeling and sterol analysis was essentially as described (Popjak et al. J. Biol. Chem. 264: 630-6238.1989; Rilling et al. 1993 Arch. Biochem. Biophys. 301: 210-215.), with minor modifications. Briefly, COS-7 cells were plated at ˜35% confluence into two 60 mm dishes at 37° C. in 4 ml each of Dulbecco's modified Eagle's medium (DMEM) supplemented with 10% fetal bovine serum (FBS). After 24 hr of growth the medium in each dish was replaced with 2 ml fresh medium with 10% FBS; [^3H]-mevalonic acid (NEN #NET 176) brought to a specific activity of 0.8 Ci/mmol in a 1% solution of bovine serum albumin was added to this medium to a final concentration of […]. At this time, one dish received […] of a 4 mg/ml solution of jervine in ethanol (final concentration […] jervine), and the other received […] of ethanol. […]

[8] = COS7 cells labelled with [3H]-mevalonic acid, 24 hr, jervine (b16 and b71 print 28=|M), versus ethanol control

Structure (SMILES) | inhibition of 7-dehydrocholesterol reductase [1] | sterol precursor abnormally accumulated [2] | induction of HPE-like malformations [3] | congenital craniofacial malformations in newborn lambs [6] | also measured
Cl.Cl.Clc1ccccc1CNCC1CCC(CNCc2ccccc2Cl)CC1 (stereo not drawn) [AY 9944R] | inhibited | 7-dehydrocholesterol | HPE-like malformations can be induced | – | –
O=C(O)c1ccc(CCN2CCN(C/C=C/c3ccc(Cl)cc3)CC2)cc1 [BM 15.766] | inhibited | 7-dehydrocholesterol | HPE-like malformations can be induced | – | teratogenesis, resulting defects [4]: severe holoprosencephaly
CC(C)CCC[C@@H](C)[C@H]1CC[C@H]2[C@@H]3CC=C4C[C@@H](O)CC[C@]4(C)[C@H]3CC[C@]12C [Cholesterol, cholesterol] | – | – | – | – | effect on in vitro autoprocessing reaction [5]: stimulates
CCN(CC)CCOc1ccc(C(O)(Cc2ccc(Cl)cc2)c2ccc(C)cc2)cc1 (stereo not drawn) [Triparanol] | – | desmosterol | HPE-like malformations can be induced | – | –
CC1=C2C[C@H]3[C@@H](CC=C4C[C@@H](O)CC[C@@]43C)[C@@H]2CC[C@]12O[C@@H]1C[C@H](C)CN[C@H]1[C@H]2C [cyclopamine] | – | – | – | responsible | –
CC1=C2C(=O)[C@H]3[C@@H](CC=C4C[C@@H](O)CC[C@@]43C)[C@@H]2CC[C@]12O[C@@H]1C[C@H](C)CN[C@H]1[C@H]2C [jervine] | – | – | – | responsible | another radiolabelled sterol, tentatively identified as zymosterol [7, 8]: found to accumulate; also recorded: increased levels; radiolabelled cholesterol levels [7, 8]: reduced levels; inhibition of cholesterol biosynthesis in cultured cells ([7]; COS7 cells, jervine at these concentrations): inhibits cholesterol biosynthesis
